Legend:
Format in all cases: in vivo
[1] = test system: Solanum nigrum (SOLNI); assay: Pre-emergence herbicidal glasshouse test on Solanum nigrum; details: pre-emergence, 1000 g/h, evaluated after 13 days; for herbicidal damage, PRE Application SOLNI: five point scale
Procedure, shortened: (§1)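 Pre-emergence treatment came one day after sowing, post-emergence treatment after eight days' growth; both used 1000 g/h in a 0.5% Tween 20 acetone/water vehicle. Percent damage, scored 1–5, was read 13 days later.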

[2] = test system: Alopecurus myosuroides (ALOMY); assay: Post-emergence herbicidal glasshouse test on Alopecurus myosuroides; details: post-emergence, 1000 g/h, evaluated after 13 days; for herbicidal damage, POST Application ALOMY: five point scale
Procedure, shortened: as §1

[3] = test system: Solanum nigrum (SOLNI); assay: Post-emergence herbicidal glasshouse test on Solanum nigrum; details: post-emergence, 1000 g/h, evaluated after 13 days; for herbicidal damage, POST Application SOLNI: five point scale
Procedure, shortened: as §1

[4] = test system: Echinochloa crus-galli (ECHCG); assay: Pre-emergence herbicidal glasshouse test on Echinochloa crus-galli; details: pre-emergence, 1000 g/h, evaluated after 13 days; for herbicidal damage, PRE Application ECHCG: five point scale
Procedure, shortened: as §1

[5] = test system: Setaria faberi (SETFA); assay: Pre-emergence herbicidal glasshouse test on Setaria faberi; details: pre-emergence, 1000 g/h, evaluated after 13 days; for herbicidal damage, PRE Application SETFA: five point scale
Procedure, shortened: as §1

[6] = test system: Echinochloa crus-galli (ECHCG); assay: Post-emergence herbicidal glasshouse test on Echinochloa crus-galli; details: post-emergence, 1000 g/h, evaluated after 13 days; for herbicidal damage, POST Application ECHCG: five point scale
Procedure, shortened: as §1

[7] = test system: Ipomoea hederacea (IPOHE); assay: Pre-emergence herbicidal glasshouse test on Ipomoea hederacea; details: pre-emergence, 1000 g/h, evaluated after 13 days; for herbicidal damage, PRE Application IPOHE: five point scale
Procedure, shortened: as §1

[8] = test system: Alopecurus myosuroides (ALOMY); assay: Pre-emergence herbicidal glasshouse test on Alopecurus myosuroides; details: pre-emergence, 1000 g/h, evaluated after 13 days; for herbicidal damage, PRE Application ALOMY: five point scale
Procedure, shortened: as §1

[9] = test system: Ipomoea hederacea (IPOHE); assay: Post-emergence herbicidal glasshouse test on Ipomoea hederacea; details: post-emergence, 1000 g/h, evaluated after 13 days; for herbicidal damage, POST Application IPOHE: five point scale
Procedure, shortened: as §1

[10] = test system: Amaranthus retoflexus (AMARE); assay: Pre-emergence herbicidal glasshouse test on Amaranthus retoflexus; details: pre-emergence, 1000 g/h, evaluated after 13 days; for herbicidal damage, PRE Application AMARE: five point scale
Procedure, shortened: as §1

[11] = test system: Setaria faberi (SETFA); assay: Post-emergence herbicidal glasshouse test on Setaria faberi; details: post-emergence, 1000 g/h, evaluated after 13 days; for herbicidal damage, POST Application SETFA: five point scale
Procedure, shortened: as §1

[12] = test system: Amaranthus retoflexus (AMARE); assay: Post-emergence herbicidal glasshouse test on Amaranthus retoflexus; details: post-emergence, 1000 g/h, evaluated after 13 days; for herbicidal damage, POST Application AMARE: five point scale
Procedure, shortened: as §1

| Structure (SMILES) | PRE Application SOLNI herbicidal damage (five point scale) [1] | POST Application ALOMY herbicidal damage (five point scale) [2] | POST Application SOLNI herbicidal damage (five point scale) [3] | PRE Application ECHCG herbicidal damage (five point scale) [4] | PRE Application SETFA herbicidal damage (five point scale) [5] | POST Application ECHCG herbicidal damage (five point scale) [6] | PRE Application IPOHE herbicidal damage (five point scale) [7] | PRE Application ALOMY herbicidal damage (five point scale) [8] | herbicidal damage, PRE Application SOLNI [1] | herbicidal damage, POST Application ALOMY [2] | herbicidal damage, POST Application SOLNI [3] | herbicidal damage, PRE Application ECHCG [4] | herbicidal damage, PRE Application SETFA [5] | herbicidal damage, POST Application ECHCG [6] | herbicidal damage, PRE Application IPOHE [7] | herbicidal damage, PRE Application ALOMY [8] | herbicidal damage, POST Application IPOHE [9] | herbicidal damage, PRE Application AMARE [10] | herbicidal damage, POST Application SETFA [11] | herbicidal damage, POST Application AMARE [12] | other results |
| --- | --- | --- | --- | --- | --- | --- | --- | --- | --- | --- | --- | --- | --- | --- | --- | --- | --- | --- | --- | --- | --- |
| COCn1ncc(-c2ccc(C(F)(F)F)cc2[S+](C)[O-])c(O)c1=O (stereo not drawn) [Compound 1.146] | 5 (5=80-100% damage) | 5 (5=80-100% damage) | 5 (5=80-100% damage) | 5 (5=80-100% damage) | 2 (2=20-39% damage) | 5 (5=80-100% damage) | 4 (4=60-79% damage) | 4 (4=60-79% damage) | – | – | – | – | – | – | – | – | – | – | – | – | POST Application IPOHE herbicidal damage (five point scale) [9]: 5 (5=80-100% damage); PRE Application AMARE herbicidal damage (five point scale) [10]: 5 (5=80-100% damage); POST Application SETFA herbicidal damage (five point scale) [11]: 5 (5=80-100% damage); POST Application AMARE herbicidal damage (five point scale) [12]: 5 (5=80-100% damage) |
| Cn1ncc(-c2cccn(-c3cccc([N+](=O)[O-])c3)c2=O)c(O)c1=O [Compound 1.147] | 1 (1=0-19% damage) | 1 (1=0-19% damage) | 3 (3=40-59% damage) | 1 (1=0-19% damage) | 2 (2=20-39% damage) | 1 (1=0-19% damage) | 1 (1=0-19% damage) | 1 (1=0-19% damage) | – | – | – | – | – | – | – | – | – | – | – | – | POST Application IPOHE herbicidal damage (five point scale) [9]: 1 (1=0-19% damage); PRE Application AMARE herbicidal damage (five point scale) [10]: 2 (2=20-39% damage); POST Application SETFA herbicidal damage (five point scale) [11]: 1 (1=0-19% damage); POST Application AMARE herbicidal damage (five point scale) [12]: 1 (1=0-19% damage) |
| Cn1ncc(-c2cccn(-c3cccc(F)c3)c2=O)c(O)c1=O [Compound 1.148] | 1 (1=0-19% damage) | 1 (1=0-19% damage) | 3 (3=40-59% damage) | 1 (1=0-19% damage) | 1 (1=0-19% damage) | 2 (2=20-39% damage) | 2 (2=20-39% damage) | 1 (1=0-19% damage) | – | – | – | – | – | – | – | – | – | – | – | – | POST Application IPOHE herbicidal damage (five point scale) [9]: 3 (3=40-59% damage); PRE Application AMARE herbicidal damage (five point scale) [10]: 1 (1=0-19% damage); POST Application SETFA herbicidal damage (five point scale) [11]: 4 (4=60-79% damage); POST Application AMARE herbicidal damage (five point scale) [12]: 2 (2=20-39% damage) |
| Cn1ncc(-c2c(F)cnc(F)c2F)c(O)c1=O [Compound 1.149] | 1 (1=0-19% damage) | 2 (2=20-39% damage) | 4 (4=60-79% damage) | 1 (1=0-19% damage) | 1 (1=0-19% damage) | 1 (1=0-19% damage) | 1 (1=0-19% damage) | 1 (1=0-19% damage) | – | – | – | – | – | – | – | – | – | – | – | – | POST Application IPOHE herbicidal damage (five point scale) [9]: 1 (1=0-19% damage); PRE Application AMARE herbicidal damage (five point scale) [10]: 1 (1=0-19% damage); POST Application SETFA herbicidal damage (five point scale) [11]: 1 (1=0-19% damage); POST Application AMARE herbicidal damage (five point scale) [12]: 4 (4=60-79% damage) |
| COc1nccc(-c2cnn(C)c(=O)c2O)c1Cl [Compound 1.150] | – | – | – | – | – | – | – | – | 1 (1=0-19% damage) | 1 (1=0-19% damage) | 4 (4=60-79% damage) | 1 (1=0-19% damage) | 1 (1=0-19% damage) | 1 (1=0-19% damage) | 2 (2=20-39% damage) | 1 (1=0-19% damage) | 1 (1=0-19% damage) | 2 (2=20-39% damage) | 1 (1=0-19% damage) | 1 (1=0-19% damage) | – |
| Cc1nc2nc(C(F)(F)F)c(-c3cnn(C)c(=O)c3O)cc2cc1F [Compound 1.151] | – | – | – | – | – | – | – | – | 4 (4=60-79% damage) | 5 (5=80-100% damage) | 5 (5=80-100% damage) | 5 (5=80-100% damage) | 2 (2=20-39% damage) | 5 (5=80-100% damage) | 5 (5=80-100% damage) | 2 (2=20-39% damage) | 5 (5=80-100% damage) | 5 (5=80-100% damage) | 5 (5=80-100% damage) | 5 (5=80-100% damage) | – |
| Cn1ncc(-c2cccn(-c3cccc(C(F)(F)F)c3)c2=O)c(O)c1=O [Compound 1.152] | – | – | – | – | – | – | – | – | 2 (2=20-39% damage) | 1 (1=0-19% damage) | 1 (1=0-19% damage) | 2 (2=20-39% damage) | 5 (5=80-100% damage) | 1 (1=0-19% damage) | 1 (1=0-19% damage) | 4 (4=60-79% damage) | 2 (2=20-39% damage) | 2 (2=20-39% damage) | 1 (1=0-19% damage) | 1 (1=0-19% damage) | – |
| COc1ccc(-c2cnn(C)c(=O)c2O)c(OC)n1 [Compound 1.153] | – | – | – | – | – | – | – | – | 2 (2=20-39% damage) | 1 (1=0-19% damage) | 4 (4=60-79% damage) | 2 (2=20-39% damage) | 1 (1=0-19% damage) | 1 (1=0-19% damage) | 3 (3=40-59% damage) | 1 (1=0-19% damage) | 2 (2=20-39% damage) | 2 (2=20-39% damage) | 1 (1=0-19% damage) | 2 (2=20-39% damage) | – |
| Cc1ccc2cc(-c3cnn(C)c(=O)c3O)c(C(F)(F)F)nc2n1 [Compound 1.154] | – | – | – | – | – | – | – | – | 2 (2=20-39% damage) | 4 (4=60-79% damage) | 5 (5=80-100% damage) | 5 (5=80-100% damage) | 2 (2=20-39% damage) | 5 (5=80-100% damage) | 5 (5=80-100% damage) | 2 (2=20-39% damage) | 5 (5=80-100% damage) | 5 (5=80-100% damage) | 5 (5=80-100% damage) | 5 (5=80-100% damage) | – |
| CS(=O)(=O)c1ccc(-c2cnn(C3CC3)c(=O)c2O)c(Cl)c1C1=NOCC1 [Compound 1.158] | – | – | – | – | – | – | – | – | 4 (4=60-79% damage) | 5 (5=80-100% damage) | 5 (5=80-100% damage) | 5 (5=80-100% damage) | 3 (3=40-59% damage) | 5 (5=80-100% damage) | 3 (3=40-59% damage) | 3 (3=40-59% damage) | 5 (5=80-100% damage) | 5 (5=80-100% damage) | 5 (5=80-100% damage) | 5 (5=80-100% damage) | – |
| Cn1ncc(-n2ccc(C(F)(F)F)c(-c3ccccc3Cl)c2=O)c(O)c1=O [Compound 1.159] | – | – | – | – | – | – | – | – | 5 (5=80-100% damage) | 4 (4=60-79% damage) | 5 (5=80-100% damage) | 5 (5=80-100% damage) | 5 (5=80-100% damage) | 5 (5=80-100% damage) | 1 (1=0-19% damage) | 5 (5=80-100% damage) | 5 (5=80-100% damage) | 5 (5=80-100% damage) | 5 (5=80-100% damage) | 5 (5=80-100% damage) | – |

— patent publication US9693556B2, “Herbicidal pyridazinone derivatives” (SYNGENTA LIMITED, priority 2011, dated 2017)
